The values below come from PubChem BioAssay (NCI).

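All cell lines were grown in 96-well plates and treated with compound for 48 hours. TGI is the concentration that stops growth completely.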

One test concerns OVCAR-3 ovarian. The test can be described thus: inhibition of tumour cell growth, NCI panel, 48 h.
As to `Cc1ccc(-c2c3c(n(C4OC(CO)C(O)C(O)C4O)c(=S)c2C#N)CC(C)(C)CC3=O)cc1` (stereo not given), the TGI was greater than 100 µM.
On the same count and under the same terms, under `CCOC(=O)c1csc(NC(=O)CN2CCN(C)CC2)n1` stands greater than 100 µM; under `COc1ccc(CN(Cc2ccc(OC)cc2)C(=O)CC2(O)C=CCC2)cc1` (stereo not given), greater than 100 µM.
Take `COc1ccc(C(OCC2OC(n3cc(C)c(=O)[nH]c3=O)CC2n2cc(Cn3cc(Br)c(=O)[nH]c3=O)nn2)(c2ccccc2)c2ccccc2)cc1` (stereo not given): the TGI was greater than 100 µM.
The same measure, in the same setting: to `CSc1ncnc2c1cnn2CCCCO` belongs greater than 100 µM; to `COc1ccc(OC)c(C2Cc3cnc4nc(N)nc(N)c4c3C2)c1` (stereo not given), 41.6 µM; to `CC(NNC(=O)CC(=O)N(C(=O)c1ccccc1)c1ccc(Cl)cc1)c1cc2ccccc2oc1=O` (stereo not given), greater than 10 µM.
The same measure, in the same setting: under `O=[N+]([O-])c1ccc(S(=O)(=O)N=Ic2ccccc2)cc1` stands greater than 100 µM; under `CCOC(=O)C1=C(N)Oc2ccc(Br)cc2C1C(C#N)C(=O)OCC` (stereo not given), 39.7 µM; under `NCCCNCCCCNCCCN`, greater than 20.1 µM.
`O=c1c2c(-c3ccccc3)onc2n(-c2ccccc2)c(=O)n1-c1ccccc1` registered a TGI of 38.6 µM.
Turning to `CCOC(=O)c1cc(C2(O)CCN(CC(C)CC)C2=O)c(-c2cc(C)no2)[nH]1` (stereo not given), the TGI is greater than 100 µM.

The next test has as its system LOX IMVI melanoma. The test can be described thus: inhibition of tumour cell growth, NCI panel, 48 h.
The compound `Cc1ccc(-c2c3c(n(C4OC(CO)C(O)C(O)C4O)c(=S)c2C#N)CC(C)(C)CC3=O)cc1` (stereo not given) had a TGI greater than 100 µM.
On the same count and under the same terms, to `CCOC(=O)c1csc(NC(=O)CN2CCN(C)CC2)n1` belongs greater than 100 µM; to `COc1ccc(CN(Cc2ccc(OC)cc2)C(=O)CC2(O)C=CCC2)cc1` (stereo not given), greater than 100 µM.
On the same count and under the same terms, under `COc1ccc(C(OCC2OC(n3cc(C)c(=O)[nH]c3=O)CC2n2cc(Cn3cc(Br)c(=O)[nH]c3=O)nn2)(c2ccccc2)c2ccccc2)cc1` (stereo not given) stands greater than 100 µM.
As for `CSc1ncnc2c1cnn2CCCCO`, the TGI is greater than 100 µM.
On the same count and under the same terms, to `COc1ccc(OC)c(C2Cc3cnc4nc(N)nc(N)c4c3C2)c1` (stereo not given) belongs 47.6 µM; to `CC(NNC(=O)CC(=O)N(C(=O)c1ccccc1)c1ccc(Cl)cc1)c1cc2ccccc2oc1=O` (stereo not given), greater than 10 µM; to `O=[N+]([O-])c1ccc(S(=O)(=O)N=Ic2ccccc2)cc1`, greater than 100 µM.
As to `CCOC(=O)C1=C(N)Oc2ccc(Br)cc2C1C(C#N)C(=O)OCC` (stereo not given), the TGI amounted to 33.1 µM.
`NCCCNCCCCNCCCN`: the TGI worked out at 30.5 µM.
Still for that read-out and setting: to `O=c1c2c(-c3ccccc3)onc2n(-c2ccccc2)c(=O)n1-c1ccccc1` belongs greater than 100 µM.
On the same count and under the same terms, to `CCOC(=O)c1cc(C2(O)CCN(CC(C)CC)C2=O)c(-c2cc(C)no2)[nH]1` (stereo not given) belongs greater than 100 µM.

The next test deals with MDA-N. The test can be described thus: inhibition of tumour cell growth, NCI panel, 48 h.
Regarding `Cc1ccc(-c2c3c(n(C4OC(CO)C(O)C(O)C4O)c(=S)c2C#N)CC(C)(C)CC3=O)cc1` (stereo not given), the TGI is greater than 100 µM.
Still for that read-out and setting: under `CCOC(=O)c1csc(NC(=O)CN2CCN(C)CC2)n1` stands greater than 100 µM; under `COc1ccc(CN(Cc2ccc(OC)cc2)C(=O)CC2(O)C=CCC2)cc1` (stereo not given), greater than 100 µM; under `COc1ccc(C(OCC2OC(n3cc(C)c(=O)[nH]c3=O)CC2n2cc(Cn3cc(Br)c(=O)[nH]c3=O)nn2)(c2ccccc2)c2ccccc2)cc1` (stereo not given), greater than 100 µM.
Same read-out and setting: to `CSc1ncnc2c1cnn2CCCCO` belongs greater than 100 µM; to `COc1ccc(OC)c(C2Cc3cnc4nc(N)nc(N)c4c3C2)c1` (stereo not given), 83.7 µM; to `CC(NNC(=O)CC(=O)N(C(=O)c1ccccc1)c1ccc(Cl)cc1)c1cc2ccccc2oc1=O` (stereo not given), greater than 10 µM.
Regarding `O=[N+]([O-])c1ccc(S(=O)(=O)N=Ic2ccccc2)cc1`, the TGI was greater than 100 µM.
Still for that read-out and setting: to `CCOC(=O)C1=C(N)Oc2ccc(Br)cc2C1C(C#N)C(=O)OCC` (stereo not given) belongs 54.9 µM.
The same measure, in the same setting: under `NCCCNCCCCNCCCN` stands 41.5 µM; under `O=c1c2c(-c3ccccc3)onc2n(-c2ccccc2)c(=O)n1-c1ccccc1`, greater than 100 µM.
Compound `CCOC(=O)c1cc(C2(O)CCN(CC(C)CC)C2=O)c(-c2cc(C)no2)[nH]1` (stereo not given) had a TGI greater than 100 µM.

A further test deals with MDA-MB-231 breast. The test can be described thus: inhibition of tumour cell growth, NCI panel, 48 h.
Compound `Cc1ccc(-c2c3c(n(C4OC(CO)C(O)C(O)C4O)c(=S)c2C#N)CC(C)(C)CC3=O)cc1` (stereo not given) registered a TGI greater than 100 µM.
The same measure, in the same setting: under `CCOC(=O)c1csc(NC(=O)CN2CCN(C)CC2)n1` stands greater than 100 µM.
For `COc1ccc(CN(Cc2ccc(OC)cc2)C(=O)CC2(O)C=CCC2)cc1` (stereo not given), the TGI was greater than 100 µM.
In turn, `COc1ccc(C(OCC2OC(n3cc(C)c(=O)[nH]c3=O)CC2n2cc(Cn3cc(Br)c(=O)[nH]c3=O)nn2)(c2ccccc2)c2ccccc2)cc1` (stereo not given) yielded a TGI greater than 100 µM.
For the compound `CSc1ncnc2c1cnn2CCCCO`, the TGI was greater than 100 µM.
Same read-out and setting: to `COc1ccc(OC)c(C2Cc3cnc4nc(N)nc(N)c4c3C2)c1` (stereo not given) belongs 52.6 µM; to `CC(NNC(=O)CC(=O)N(C(=O)c1ccccc1)c1ccc(Cl)cc1)c1cc2ccccc2oc1=O` (stereo not given), greater than 10 µM.
The same measure, in the same setting: under `O=[N+]([O-])c1ccc(S(=O)(=O)N=Ic2ccccc2)cc1` stands greater than 100 µM; under `CCOC(=O)C1=C(N)Oc2ccc(Br)cc2C1C(C#N)C(=O)OCC` (stereo not given), 55.9 µM; under `NCCCNCCCCNCCCN`, greater than 60.8 µM.
The same measure, in the same setting: under `O=c1c2c(-c3ccccc3)onc2n(-c2ccccc2)c(=O)n1-c1ccccc1` stands greater than 100 µM; under `CCOC(=O)c1cc(C2(O)CCN(CC(C)CC)C2=O)c(-c2cc(C)no2)[nH]1` (stereo not given), greater than 100 µM.

The subject of a further test is HOP-62 NSCLC. The test can be described thus: inhibition of tumour cell growth, NCI panel, 48 h.
The compound `Cc1ccc(-c2c3c(n(C4OC(CO)C(O)C(O)C4O)c(=S)c2C#N)CC(C)(C)CC3=O)cc1` (stereo not given) came in with a TGI greater than 100 µM.
Still for that read-out and setting: to `CCOC(=O)c1csc(NC(=O)CN2CCN(C)CC2)n1` belongs greater than 100 µM.
The compound `COc1ccc(CN(Cc2ccc(OC)cc2)C(=O)CC2(O)C=CCC2)cc1` (stereo not given) displayed a TGI greater than 100 µM.
The same measure, in the same setting: to `COc1ccc(C(OCC2OC(n3cc(C)c(=O)[nH]c3=O)CC2n2cc(Cn3cc(Br)c(=O)[nH]c3=O)nn2)(c2ccccc2)c2ccccc2)cc1` (stereo not given) belongs greater than 100 µM; to `CSc1ncnc2c1cnn2CCCCO`, greater than 100 µM.
The same measure, in the same setting: to `COc1ccc(OC)c(C2Cc3cnc4nc(N)nc(N)c4c3C2)c1` (stereo not given) belongs greater than 100 µM; to `CC(NNC(=O)CC(=O)N(C(=O)c1ccccc1)c1ccc(Cl)cc1)c1cc2ccccc2oc1=O` (stereo not given), greater than 10 µM.
